We go through 28 molecules from patent US9376436B2, “2-(pyridin-2yl)-1, 7-diaza-spiro [4.4] nonane-6-one compound as voltage-gated sodium channels modulators” (CONVERGENCE PHARMACEUTICALS LIMITED, priority 2011, dated 2016).

This assay deals with T1, hNaV1.7 (Homo sapiens, UniProt Q15858).
T1 construct: expressed in transfected cells; host or cells: HEK293
Briefly: QPatch NaV1.7 assay (whole-cell patch clamp, QPatch16x). Type of assay: cell-based. Particulars: HEK293-hNaV1.7 cells. The procedure, abridged:
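HEK293 cells expressing hNaV1.7 recorded by automated whole-cell patch clamp (CsF internal, pH 7.3). Peak currents from 20 ms steps to 0 mV measured at holding potentials of −90 mV and V1/2 SSI; four-point cumulative concentrations, 120 s each, Hill fits gave pIC50 at each potential.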
On the technique in general: Patch clamp records ionic current or voltage across a cell membrane.

[1] abbreviates: holding voltage V1/2 SSI (half of channels inactivated), read-out: QP Nav1.7 SSI vhalf pIC50 (converted).
The mark [2] stands for this setting: holding voltage −90 mV (most channels closed), read-out: QP Nav1.7 −90 mV pIC50 (converted).

Structures can show the parent of a compound that is named as a salt. Where two headings read alike, the source gives them in different places.

T1 sequence (Q15858 whole entry): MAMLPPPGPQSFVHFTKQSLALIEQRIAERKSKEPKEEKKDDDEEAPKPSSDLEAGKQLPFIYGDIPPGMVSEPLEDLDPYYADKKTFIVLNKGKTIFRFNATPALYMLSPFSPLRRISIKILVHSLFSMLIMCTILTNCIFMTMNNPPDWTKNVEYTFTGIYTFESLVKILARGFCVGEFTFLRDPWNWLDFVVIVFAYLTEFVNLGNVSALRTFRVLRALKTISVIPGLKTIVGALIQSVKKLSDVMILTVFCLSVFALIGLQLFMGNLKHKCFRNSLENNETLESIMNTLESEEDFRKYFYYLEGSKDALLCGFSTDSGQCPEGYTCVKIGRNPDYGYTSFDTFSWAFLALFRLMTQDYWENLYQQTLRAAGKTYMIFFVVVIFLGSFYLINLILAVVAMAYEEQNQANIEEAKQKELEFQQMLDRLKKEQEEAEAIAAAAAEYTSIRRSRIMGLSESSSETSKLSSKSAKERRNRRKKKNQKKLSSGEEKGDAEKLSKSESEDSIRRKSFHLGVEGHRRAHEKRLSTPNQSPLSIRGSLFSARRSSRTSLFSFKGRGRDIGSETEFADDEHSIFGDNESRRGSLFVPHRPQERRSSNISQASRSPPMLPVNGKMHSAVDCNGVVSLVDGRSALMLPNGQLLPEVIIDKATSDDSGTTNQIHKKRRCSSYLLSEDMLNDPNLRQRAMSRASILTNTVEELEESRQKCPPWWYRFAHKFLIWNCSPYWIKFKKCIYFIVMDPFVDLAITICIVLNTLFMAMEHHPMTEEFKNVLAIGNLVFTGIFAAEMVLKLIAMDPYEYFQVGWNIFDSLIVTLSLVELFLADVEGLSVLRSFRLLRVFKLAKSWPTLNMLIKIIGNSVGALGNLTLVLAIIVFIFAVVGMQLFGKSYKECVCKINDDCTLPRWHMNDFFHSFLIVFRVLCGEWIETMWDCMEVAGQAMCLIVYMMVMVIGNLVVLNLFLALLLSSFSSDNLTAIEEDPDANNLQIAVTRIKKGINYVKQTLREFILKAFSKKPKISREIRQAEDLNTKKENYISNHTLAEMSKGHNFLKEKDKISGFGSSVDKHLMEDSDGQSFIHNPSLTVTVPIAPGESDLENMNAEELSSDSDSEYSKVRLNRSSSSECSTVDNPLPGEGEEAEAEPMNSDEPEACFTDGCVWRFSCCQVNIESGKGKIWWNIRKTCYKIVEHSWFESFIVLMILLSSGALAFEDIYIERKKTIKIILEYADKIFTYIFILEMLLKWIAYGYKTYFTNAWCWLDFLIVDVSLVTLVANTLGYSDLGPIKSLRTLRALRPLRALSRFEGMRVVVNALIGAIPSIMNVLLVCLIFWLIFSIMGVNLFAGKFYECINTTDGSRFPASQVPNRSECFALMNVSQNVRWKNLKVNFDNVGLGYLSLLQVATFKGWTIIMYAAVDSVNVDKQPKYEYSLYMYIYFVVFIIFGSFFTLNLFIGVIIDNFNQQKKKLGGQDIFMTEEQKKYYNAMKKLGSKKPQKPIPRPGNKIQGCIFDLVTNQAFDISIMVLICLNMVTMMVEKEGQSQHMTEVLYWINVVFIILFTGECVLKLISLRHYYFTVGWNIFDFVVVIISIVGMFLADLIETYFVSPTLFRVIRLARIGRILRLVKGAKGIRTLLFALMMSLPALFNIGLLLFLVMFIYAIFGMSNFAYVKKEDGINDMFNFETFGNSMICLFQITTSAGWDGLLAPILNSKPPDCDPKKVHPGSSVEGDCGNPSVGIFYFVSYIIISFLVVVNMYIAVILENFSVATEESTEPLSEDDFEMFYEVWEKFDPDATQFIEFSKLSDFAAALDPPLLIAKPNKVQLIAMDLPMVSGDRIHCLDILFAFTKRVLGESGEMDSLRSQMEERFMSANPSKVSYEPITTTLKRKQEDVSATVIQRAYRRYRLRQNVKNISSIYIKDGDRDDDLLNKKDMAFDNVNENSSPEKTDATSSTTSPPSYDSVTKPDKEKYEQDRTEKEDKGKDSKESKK

For the molecule `CCOc1ccc(F)c(-c2cc(C(C)C)nc([C@H]3CC[C@@]4(CCN(C)C4=O)N3)c2)c1` [Example 237, (2R,5S)-2-[4-(5-Ethoxy-2-fluoro-phenyl)-6-isopropyl-2-pyridyl]-7-methyl-1,7-diazaspiro[4.4]nonan-6-one hydrochloride], the IC50 was 0.316 µM under setting [1] and 2.51 µM under setting [2].

With `CN1CC[C@@]2(CC[C@H](c3cc(-c4ccc5c(c4)OC(F)(F)O5)ccn3)N2)C1=O` [Example 172, (2R,5S)-2-[4-(2,2-Difluoro-1,3-benzodioxol-5-yl)-2-pyridyl]-7-methyl-1,7-diazaspiro[4.4]nonan-6-one hydrochloride], the IC50 by setting is: under setting [1], 31.6 µM; under setting [2], 316 µM.

For `COc1ccc(-c2ccnc([C@H]3CC[C@@]4(CCN(C)C4=O)N3)c2)cc1OC` [Example 163, (2R,5S)-2-[4-(3,4-Dimethoxyphenyl)-2-pyridyl]-7-methyl-1,7-diazaspiro[4.4]nonan-6-one hydrochloride], the IC50 under setting [2] is 7940 µM.

For `CCOc1c(F)cccc1-c1ccnc([C@H]2CC[C@@]3(CCN(C)C3=O)N2)c1` [Example 158, (2R,5S)-2-[4-(2-Ethoxy-3-fluoro-phenyl)-2-pyridyl]-7-methyl-1,7-diazaspiro[4.4]nonan-6-one hydrochloride], the IC50 under setting [1] was 63.1 µM and the IC50 under setting [2] is 1260 µM.

For `CCOc1ccc(F)c(-c2ccnc([C@@H]3CC[C@]4(CC(C)(C)NC4=O)N3)c2)c1` [Example 219, (2S,5R)-2-[4-(5-Ethoxy-2-fluoro-phenyl)-2-pyridyl]-8,8-dimethyl-1,7-diazaspiro[4.4]nonan-6-one hydrochloride], the IC50 runs as follows: under setting [1], 7.94 µM; under setting [2], 50.1 µM.

Take `CCOc1cc(F)cc(-c2cc(C)nc([C@H]3CC[C@@]4(CCN(C)C4=O)N3)c2)c1` [Example 197, (2R,5S)-2-[4-(3-Ethoxy-5-fluoro-phenyl)-6-methyl-2-pyridyl]-7-methyl-1,7-diazaspiro[4.4]nonan-6-one hydrochloride]: the IC50 by setting is: under setting [1], 5.01 µM; under setting [2], 50.1 µM.

With `CCOc1ccc(F)c(-c2cc(C)nc([C@H]3CC[C@]4(CCN(C)C4=O)N3)c2)c1` [Example 121, (2R,5R)-2-[4-(5-Ethoxy-2-fluoro-phenyl)-6-methyl-pyridin-2-yl]-7-methyl-1,7-diaza-spiro[4.4]nonan-6-one hydrochloride], the IC50 is, setting by setting: under setting [1], 0.631 µM; under setting [2], 12.6 µM.

For `CCCOc1ccc(F)c(-c2ccnc([C@H]3CC[C@@]4(CCN(C)C4=O)N3)c2)c1` [Example 177, (2R,5S)-2-[4-(2-Fluoro-5-propoxy-phenyl)-2-pyridyl]-7-methyl-1,7-diazaspiro[4.4]nonan-6-one hydrochloride], the IC50 under setting [1] is 0.398 µM and the IC50 under setting [2] is 12.6 µM.

Take `O=C1NCC[C@@]12CC[C@H](c1cc(-c3cccc(OC(F)(F)F)c3)ccn1)N2` [Example 118, (2R,5S)-2-[4-[3-(Trifluoromethoxy)phenyl]-2-pyridyl]-1,7-diazaspiro[4.4]nonan-6-one hydrochloride]: the IC50 reads like this: under setting [1], 7.94 µM; under setting [2], 50.1 µM.

Regarding `CCOc1ccc(F)c(-c2cc(C(C)C)nc([C@H]3CC[C@]4(CCN(C)C4=O)N3)c2)c1` [Example 234, (2R,5R)-2-[4-(5-Ethoxy-2-fluoro-phenyl)-6-isopropyl-2-pyridyl]-7-methyl-1,7-diazaspiro[4.4]nonan-6-one hydrochloride], the IC50 is, setting by setting: under setting [1], 0.0501 µM; under setting [2], 1 µM.

Turning to `CCOc1ccc(C)c(-c2ccnc([C@H]3CC[C@@]4(CCN(C)C4=O)N3)c2)c1` [Example 178, (2R,5S)-2-[4-(5-Ethoxy-2-methyl-phenyl)-2-pyridyl]-7-methyl-1,7-diazaspiro[4.4]nonan-6-one hydrochloride], the IC50 runs as follows: under setting [1], 25.1 µM; under setting [2], 631 µM.

Turning to `Cc1cc(-c2ccc(OC(C)C)cc2)cc([C@@H]2CC[C@@]3(CCN(C)C3=O)N2)n1` [Example 86, (2S,5S)-2-[4-(4-Isopropoxyphenyl)-6-methyl-2-pyridyl]-7-methyl-1,7-diazaspiro[4.4]nonan-6-one hydrochloride], the IC50 was 10 µM under setting [1] and 100 µM under setting [2].

For the molecule `CN1CC[C@@]2(CC(F)(F)C(c3cc(-c4ccc(C(F)(F)F)cc4)ccn3)N2)C1=O` (mixture of isomers) [Example 240, (5R)-3,3-Difluoro-7-methyl-2-[4-[4-(trifluoromethyl)phenyl]-2-pyridyl]-1,7-diazaspiro[4.4]nonan-6-one hydrochloride], the IC50 was 1.58 µM under setting [1] and 31.6 µM under setting [2].

With `CCOc1ccc(F)c(-c2cc([C@@H]3CC[C@@]4(CCN(C)C4=O)N3)ncc2F)c1` [Example 224, (2S,5S)-2-[4-(5-Ethoxy-2-fluoro-phenyl)-5-fluoro-2-pyridyl]-7-methyl-1,7-diazaspiro[4.4]nonan-6-one hydrochloride], the IC50 is 15.8 µM under setting [1] and 100 µM under setting [2].

For `CCOc1ccc(F)c(-c2cc(C)nc([C@H]3CC[C@@]4(CCN(C)C4=O)N3)c2)c1` [Example 93, (2R,5S)-2-[4-(5-Ethoxy-2-fluoro-phenyl)-6-methyl-pyridin-2-yl]-7-methyl-1,7-diaza-spiro[4.4]nonan-6-one hydrochloride], the IC50 is 3.98 µM under setting [1] and 39.8 µM under setting [2].

For the molecule `Cc1cc(-c2cc(OC(F)(F)F)ccc2F)cc([C@H]2CC[C@@]3(CCN(C)C3=O)N2)n1` [Example 200, (2R,5S)-2-[4-[2-Fluoro-5-(trifluoromethoxy)phenyl]-6-methyl-2-pyridyl]-7-methyl-1,7-diazaspiro[4.4]nonan-6-one hydrochloride], the IC50 was 2 µM under setting [1] and 31.6 µM under setting [2].

As to `O=C1NCC[C@@]12CC[C@@H](c1cc(-c3cccc(OC(F)(F)F)c3)ccn1)N2` [Example 119, (2S,5S)-2-[4-[3-(Trifluoromethoxy)phenyl]-2-pyridyl]-1,7-diazaspiro[4.4]nonan-6-one hydrochloride], the IC50 is 3.98 µM under setting [1] and 31.6 µM under setting [2].

In the case of `CN1CCC[C@@]2(CC[C@H](c3cc(-c4ccc(F)cc4)ccn3)N2)C1=O` [Example 71, (2R,5R)-2-[4-(4-Fluoro-phenyl)-pyridin-2-yl]-7-methyl-1,7-diaza-spiro[4.5]decan-6-one hydrochloride], the IC50 by setting is: under setting [1], 20 µM; under setting [2], 126 µM.

For the molecule `CN1CC[C@@]2(CC[C@H](c3cc(-c4cc5[nH]ncc5cc4F)ccn3)N2)C1=O` [Example 186, (2R,5S)-2-[4-(5-Fluoro-1H-indazol-6-yl)-2-pyridyl]-7-methyl-1,7-diazaspiro[4.4]nonan-6-one hydrochloride], the IC50 by setting is: under setting [1], 158 µM; under setting [2], 6310 µM.

In the case of `CCOc1ccc(F)c(-c2cc(OC)nc([C@@H]3CC[C@@]4(CCN(C)C4=O)N3)c2)c1` [Example 249, (2S,5S)-2-[4-(5-Ethoxy-2-fluoro-phenyl)-6-methoxy-2-pyridyl]-7-methyl-1,7-diazaspiro[4.4]nonan-6-one hydrochloride], the IC50 under setting [1] is 1.26 µM and the IC50 under setting [2] was 15.8 µM.

With `CCOc1ccc(F)c(-c2ccnc([C@H]3CC[C@@]4(CCCNC4=O)N3)c2)c1` [Example 108, (2R,5R)-2-[4-(5-Ethoxy-2-fluoro-phenyl)-pyridin-2-yl]-1,7-diaza-spiro[4.5]decan-6-one hydrochloride], the IC50 by setting is: under setting [1], 0.0631 µM; under setting [2], 1.26 µM.

`CN1CC[C@@]2(CC[C@H](c3cc(-c4cccc(OC(F)(F)F)c4)ccn3)N2)C1=O.Cl` [Example 1, (2R,5S)-7-Methyl-2-[4-[3-(trifluoromethoxy)phenyl]-2-pyridyl]-1,7-diazaspiro[4.4]nonan-6-one hydrochloride]: under “holding voltage V1/2 SSI (half of channels inactivated)”, the “QP Nav1.7 SSI vhalf pIC50” value amounted to 5.5.

On to `Cc1cc(-c2cc(C(F)(F)F)ccc2C(N)=O)cc([C@H]2CC[C@@]3(CCN(C)C3=O)N2)n1` [Example 24, 2-[2-Methyl-6-[(2R,5S)-7-methyl-6-oxo-1,7-diazaspiro[4.4]nonan-2-yl]-4-pyridyl]-4-(trifluoromethyl)benzamide hydrochloride], for which the IC50 is 398 µM under setting [1] and 1000 µM under setting [2].

With `Cc1cc(-c2cccc(OC(F)(F)F)c2)cc([C@H]2CC[C@@]3(CCN(C)C3=O)N2)n1` [Example 127, (2R,5S)-7-Methyl-2-[6-methyl-4-[3-(trifluoromethoxy)phenyl]-2-pyridyl]-1,7-diazaspiro[4.4]nonan-6-one hydrochloride], the IC50 is 12.6 µM under setting [1] and 12.6 µM under setting [2].

Turning to `CN1CC[C@@]2(CC[C@H](c3cc(-c4ccc(C(F)(F)F)cc4F)ccn3)N2)C1=O` [Example 12, (2R,5S)-2-[4-[2-Fluoro-4-(trifluoromethyl)phenyl]-2-pyridyl]-7-methyl-1,7-diazaspiro[4.4]nonan-6-one hydrochloride], the IC50 is 10 µM under setting [1] and 50.1 µM under setting [2].

On to `CCOc1cc(-c2cc(C)nc([C@H]3CC[C@@]4(CCN(C)C4=O)N3)c2)c(F)cc1C` [Example 202, (2R,5S)-2-[4-(5-Ethoxy-2-fluoro-4-methyl-phenyl)-6-methyl-2-pyridyl]-7-methyl-1,7-diazaspiro[4.4]nonan-6-one hydrochloride], for which the IC50 reads like this: under setting [1], 3.16 µM; under setting [2], 31.6 µM.

In the case of `CN1CC[C@@]2(CC(F)C(c3cc(-c4ccc(C(F)(F)F)cc4)ccn3)N2)C1=O` (single isomer, unassigned) [Example 238, hydrochloride], the IC50 is 2 µM under setting [1] and 50.1 µM under setting [2].

As to `CCOc1ccc(F)c(-c2cc([C@@H]3CC[C@]4(CCN(C)C4=O)N3)ncc2C)c1` [Example 139, (2S,5R)-2-[4-(5-Ethoxy-2-fluoro-phenyl)-5-methyl-2-pyridyl]-7-methyl-1,7-diazaspiro[4.4]nonan-6-one hydrochloride], the IC50 by setting is: under setting [1], 39.8 µM; under setting [2], 251 µM.
